Test results published in PubChem BioAssay (NCI).
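48-hour exposure; five concentrations; linearly interpolated endpoints. TGI: total growth inhibition.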

Columns and labels:
Experiment in all cases: growth of human tumour cells (NCI), 48 h
EKVX NSCLC = test system: EKVX NSCLC
HCT-15 colon = test system: HCT-15 colon
KM12 colon = test system: KM12 colon
MDA-MB-435 = test system: MDA-MB-435
NCI-H23 lung = test system: NCI-H23 lung
NCI/ADR-RES ovarian = test system: NCI/ADR-RES ovarian
SF-268 CNS = test system: SF-268 CNS
SW-620 colon = test system: SW-620 colon
UO-31 renal = test system: UO-31 renal

Compound | TGI (EKVX NSCLC) | TGI (HCT-15 colon) | TGI (KM12 colon) | TGI (MDA-MB-435) | TGI (NCI-H23 lung) | TGI (NCI/ADR-RES ovarian) | TGI (SF-268 CNS) | TGI (SW-620 colon) | TGI (UO-31 renal)
CC1(C)CN=C(c2ccc3ccccc3c2O)N1 | > 100 µM | > 100 µM | > 100 µM | > 100 µM | > 100 µM | > 100 µM | > 100 µM | > 100 µM | > 100 µM
C[N+](C)(C)c1nc(N)nc2c1ncn2C1OC(CO)C(O)C1O (stereo not given) | > 100 µM | > 100 µM | > 100 µM | > 100 µM | > 100 µM | > 100 µM | > 100 µM | > 100 µM | > 100 µM
CCCCCCCCCCCOCCC1C(C(C)OCCN2CCCC2)OC2OC(C)(C)OC21 (stereo not given) | 10.8 µM | 4.35 µM | 1.78 µM | 3.51 µM | 11 µM | 19.6 µM | 16 µM | 3.55 µM | 6.51 µM
COC(=O)[C@]12CCC(=O)N1[C@H](C(=O)O)Cc1c2[nH]c2ccccc12 | > 100 µM | > 100 µM | > 100 µM | > 100 µM | > 100 µM | > 100 µM | > 100 µM | > 100 µM | > 100 µM
COc1ccc(N2C(=O)CSC2c2cc(OC)c(OC)c(OC)c2)cc1 (stereo not given) | > 100 µM | 44.4 µM | 32.9 µM | 85.2 µM | > 100 µM | 85.6 µM | > 100 µM | > 100 µM | 27.1 µM
COc1ccc(/C=C(\C#N)c2nc(-c3cc4ccccc4oc3=O)cs2)cc1 | > 100 µM | > 100 µM | > 100 µM | > 100 µM |  | > 100 µM | 83.4 µM | 66.8 µM | 57.4 µM
Cn1cnc([N+](=O)[O-])c1Sc1nncc2[nH]cnc12 | > 100 µM | > 100 µM | > 100 µM | > 100 µM | > 100 µM | > 100 µM |  | > 100 µM | > 100 µM
CN(C)CCCN1C(=O)N(CCCN(C)C)c2c3cc(O)ccc3nc3c([N+](=O)[O-])ccc1c23 |  | > 100 µM | 29.8 µM | 36.2 µM | 48 µM | > 100 µM | 26.3 µM | 53.2 µM | 63.6 µM
CC(=O)Nc1oc(C)nc1C#N | > 100 µM | > 100 µM | > 100 µM | > 100 µM |  |  | > 100 µM | > 100 µM | 
CCn1c2ccccc2c2cc(NC(=O)c3c(C)[nH]c(=O)[nH]c3=S)ccc21 |  | > 100 µM | 64.5 µM | 84 µM | > 100 µM | > 100 µM |  | > 100 µM | > 100 µM
CCCCN=C(OC1C=CCCC1)SC (stereo not given) | > 100 µM | > 100 µM |  | > 100 µM | > 100 µM | > 100 µM | > 100 µM | > 100 µM | > 100 µM
Cc1cc2nnn(C3CCCO3)c2cc1C (stereo not given) | > 100 µM | > 100 µM |  | > 100 µM | > 100 µM | > 100 µM | > 100 µM |  | 
Cc1cc(=O)[nH]c(S(=O)(=O)NC(=S)Nc2ccc(Br)cc2)n1 | > 100 µM | > 100 µM |  | > 100 µM | > 100 µM | > 100 µM | > 100 µM | > 100 µM | > 100 µM
CC(C)(C)OC(=O)N[C@@H](Cc1ccccc1)C(=O)N1CC[C@@H](C(=O)N2[C@H]3CC4CC[C@@]3(CS2(=O)=O)C4(C)C)N1 |  | > 100 µM | > 100 µM | > 100 µM | > 100 µM | > 100 µM | > 100 µM | > 100 µM | 
CC(C)=CCC/C(C)=C/CCC1(C)C2COC(=O)C21 (stereo not given) | > 100 µM | > 100 µM | > 100 µM | > 100 µM | > 100 µM |  | > 100 µM | > 100 µM | > 100 µM
Cn1c(=O)c2[nH]cnc2n(C)c1=O | > 100 µM | > 100 µM | > 100 µM |  | > 100 µM | > 100 µM |  | > 100 µM | > 100 µM
COc1cccc(C2c3cc4c(cc3OC(N3CCOCC3)C2C)OCO4)c1 (stereo not given) | 87.7 µM | > 100 µM |  |  |  | > 100 µM | 85.5 µM | 16.7 µM | 43.4 µM
Cc1cccc(-c2cc(=O)c3c(C)ccnc3[nH]2)c1 | > 100 µM | > 100 µM | 16.8 µM |  | > 100 µM |  | > 100 µM |  | 
C=C(Cl)C(=C)CCC(Cl)C(C)(C)Cl (stereo not given) | > 100 µM |  | > 100 µM | > 100 µM | > 100 µM | > 100 µM | > 100 µM | > 100 µM | > 100 µM
Cc1cccc(/C=N/NC(=S)NC(C)(C)C)n1 |  | > 100 µM | > 100 µM | > 100 µM | > 100 µM | > 100 µM | > 100 µM | > 100 µM | > 100 µM
O=c1oc2ccccc2cc1-c1nc2ccccc2s1 | 39.2 µM |  | > 54.3 µM | 18.1 µM | 39.4 µM |  | 25.2 µM | 34.8 µM | 17.6 µM
